Values quoted from earlier work as cited in US8021854B2, “Method of treating vascular disease” (priority 2007, dated 2011).
Read-outs that look alike come from different tables or passages of the source.

Key:
[1] = test system: patients with myeloproliferative disorders; conditions: 577 patients
[2] = test system: patients with and without significant cardiovascular history
[3] = in vivo
[4] = test system: patients with essential thrombocythemia at high risk for vascular events; conditions: versus hydroxyurea group
[5] = test system: platelets of patients with essential thrombocythaemia; conditions: during therapy
[6] = test system: patients with thrombocythemic states; conditions: 942 patients
vaso-occlusive disease = conditions: low doses of aspirin

SMILES: O=C1CN2Cc3c(ccc(Cl)c3Cl)N=C2N1 [anagrelide]
- study population that discontinued therapy due to adverse events ([1]; mean treatment duration 65 weeks): Sixteen
- discontinuation of therapy due to cardiovascular adverse events ([1]; 23 patients): 4%
- palpitations and tachycardia (patients) ([1]; 209 patients): 36%
- patients who died from cardiovascular adverse events ([1]; four had preexisting coronary artery disease): Seven
- congestive heart failure (patients) ([1]; fourteen patients): 2.4%
- severity of cardiovascular events (palpitations, edema, tachycardia) ([2]; 492 patients): generally mild and did not increase cardiovascular disease morbidity
- patients experiencing cardiovascular adverse events ([2]; patients with history of cardiac disease, 22 of 90): 24%
- patients experiencing cardiovascular adverse events ([2]; patients without history of cardiac disease, 30 of 402, p=0.0001): 7%
- adverse reaction: chest pain [3]: 8%
- adverse reaction: peripheral edema [3]: 9%
- adverse reaction: tachycardia [3]: 8%
- withdrawal from assigned treatment ([4]; P<0.001): more likely to withdraw
- odds ratio of reaching the primary end point ([4]; median follow-up 39 months, 95 percent CI 1.04 to 2.37, P=0.03): 1.57
- functional or chemical platelet abnormalities [5]: no functional or chemical abnormality was improved
- platelet count [5]: corrected
- platelet volume [5]: constantly increased
- deaths [6]: 50
- deaths from cardiac causes [6]: 15
- fluid retention [6]: 22%
- palpitations [6]: 26%
- patients who discontinued the agent due to adverse events [6]: Thirteen

SMILES: CC(=O)Oc1ccccc1C(=O)O [aspirin, Acetyl salicylic acid]
- incidence of major haemorrhage (vaso-occlusive disease): less than 1%
- morbidity and mortality reductions (vaso-occlusive disease; vaso-occlusive disease, Physician's Health Study): 45%
